Data reported in patent US20140371244A1, “METHOD FOR TREATING PROSTATE CANCER BY USE OF PHARMACEUTICAL COMPOSITION CONTAINING A3 ADENOSINE RECEPTOR AGONIST” (priority 2009, published 2014).

Assays:
[1] = system: LNCaP (androgen receptor dependent); experiment: SRB assay, growth of LNCaP cells; type: cell-based, human; conditions: for IC50: SRB, 3 days
Procedure: (§1) In order to examine the inhibitory effects on the growth of the human prostate cancer cells LNCaP (androgen receptor dependent) and PC-3 (androgen receptor independent), a sulforhodamine B (SRB) assay was performed.
(§2) 10 μL of a solution of thio-Cl-IB-MECA in 10% dimethylsulfoxide (DMSO) was loaded in each well of a 96-well plate in triplicate at concentrations of 50, 25, 12.5 and 6.25 μM, thus making a test plate. Cells were diluted to a density of 6×10^4 cells/ml with 10% FBS-containing RPMI 1640 medium supplemented with antibiotics-antimycotics, and 190 μL of the cell suspension was added to each well so as to reach a total volume of 200 μL and was cultured in a 5% CO2 incubator at 37° C. for 3 days. At the same time, 190 μL of the same cell suspension was loaded into each of 16 wells or more of a fresh 96-well plate containing no sample (thio-Cl-IB-MECA) and was cultured in a 5% CO2 incubator at 37° C. for 30 minutes, thereby determining reference date. After the culture, 50 μL of 50% trichloroacetic acid (TCA) was added to each well, and the cells were fixed by culture at 4° C. for 1 hour. Then, the well plate was washed five times with tap water and dried. 100 μL of 1% acetic acid solution containing […] sulforhodamine B (SRB) was added to each well to stain the cells, and the well plate was allowed to stand at room temperature for 1 hour. After the well plate has been washed five times with 1% acetic acid and sufficiently dried, 200 μL of 100 mM Tris-base was added to each well, and the bound staining liquid was dissolved and sufficiently shaken in a shaker. Then, the absorbance at 515 nm was measured using an ELISA microplate reader. Based on the measured absorbance, the cell viability of the test group relative to the control group was calculated using the following equation 2, and based on the viability at each concentration, the IC50 value of the sample was calculated using TableCurve program: […]

[2] = system: human colorectal cancer HCT 116 cells; experiment: Anticancer activity in nude mice transplanted with HCT 116 cells; type: in vivo, nude mice (Balb/c-nu/nu mice); conditions: for side effects (such as a change in bodyweight) during the test period: 0.02, 0.2 and 2 mg/kg orally for 21 days
Procedure: HCT 116 cells were prepared at a concentration of 2×10^6 cells/200 μl (RPMI) and administered subcutaneously into the right frank of 6-week-old female nude mice (Balb/c-nu/nu mice). The tumor size was measured with calipers, and the tumor size reached about 100 mm^3, 20 mice having substantially the same tumor size were divided into a control group and three sample-treated groups. The three sample-treated group were administered orally with IB-MECA at doses of 0.02, 0.2 and 2 mg/kg, respectively, for 21 days. In the control group and the sample-treated groups, the bodyweight was measured once every week, and the tumor size was measured at intervals of 3-4 days. The tumor volume was measured using equation 3 above. In the equation, a represents the longer diameter of the tumor, b represents the shorter diameter of the tumor, and c represents the height of the tumor.
Anticancer activity was measured by an animal test in the same manner as Example 20, except that 6-week-old female nude mice were administered with Cl-IB-MECA in place of IB-MECA as a sample.
Anticancer activity was measured by an animal test in the same manner as Example 20, except that 6-week-old female nude mice were administered with thio-Cl-IB-MECA in place of IB-MECA as a sample.

[3] = system: PC-3 (androgen receptor independent); experiment: SRB assay, growth of PC-3 cells; type: cell-based, human; conditions: for IC50: SRB, 3 days
Procedure: as §1, §2

[4] = system: HCT 116 cells; experiment: RT-PCR of cell cycle regulation-related genes in HCT 116 cells; type: cell-based, human; conditions: 40 μM
Procedure: A test was carried out to examine whether cell cycle regulation-related genes involved in the G1 phase are expressed.
Specifically, HCT 116 cells were diluted with 10% FBS-containing medium to a density of 1×10^6 cells per 100 mm culture dish and cultured under the conditions of 37° C. and 5% CO2 for 24 hours, followed by washing twice with PBS. Thio-Cl-IB-MECA was diluted in 10% FBS-containing medium to a concentration of 40 μM, and then 10 ml of the culture medium prepared in the 100 mm culture dish was added thereto and cultured for a given time. The non-adherent cells and adherent cells in the cell medium were collected and washed twice with PBS. Then, the cells were lysed with TRI reagent (TRIzol), after which CHCl3 was added thereto and RNA was extracted from the cells and precipitated using isopropyl alcohol. The RNA precipitate was washed with 70% ethanol and dried in air, after which it was suspended in nuclease-free water. The suspension was heated at 55° C. for 10 minutes and then at 70° C. for 5 minutes, so that the RNA was present as a single chain. The total RNA was quantified with NanoDrop, after which it was diluted to a concentration of 1 μg/μl and made into cDNA using avian myeloblastosis virus (AMV) reverse transcriptase and oligo (dT)15 primers. […]

[5] = system: PC-3; experiment: Morphological change of PC-3 cells; type: cell-based, human; conditions: 40, 20 and 10 μM, 48 hours
Procedure: Each of LNCaP and PC-3 prostate cancer cell lines was treated with 40, 20 and 10 μM of thio-Cl-IB-MECA and cultured for 48 hours, and then the morphological change of the cells was observed.
Specifically, each type of the prostate cancer cells was diluted with 10% FBS (Fetal Bovine Serum)-containing medium to a density of 1.0×10^6 cells per 100 mm culture dish and cultured under the conditions of 37° C. and 5% CO2, followed by washing twice with PBS (Phosphate Buffered Saline). Thio-Cl-IB-MECA was diluted in 10% FBS-containing medium at required concentration, and then 10 ml of the culture medium prepared in the 100 mm culture dish was added thereto and incubated for a given time. The morphology of the cells was observed as a function of treatment time and concentration (FIGS. 11a and 11b).

[6] = system: TNF-α; experiment: TNF-α secretion (ELISA) and mRNA expression (RT-PCR) in LPS-stimulated RAW 264.7 cells; type: cell-based, mouse
Procedure: TNF-α is a cytokine whose expression increases in cells stimulated by LPS, and it influences the expression of IL-1β and the progression of inflammatory reactions. Thus, the effect of the inventive composition on the expression of TNF-α was examined. Specifically, RAW 264.7 cells were pretreated with each of 20, 10 and 5 μM of the inventive composition (thio-Cl-IB-MECA) and treated with LPS (1 μg/ml) to induce inflammatory reactions. Then, the cells were incubated for 6 hours, after which the supernatant was taken and the amount of TNF-α secreted into the supernatant was measured using an ELISA ([…]) kit.
In addition, in order to examine whether TNF-α is expressed at the gene level, the effect of the inventive composition on the expression of TNF-α mRNA was also tested using the RT-PCR method.

## CNC(=O)[C@H]1O[C@@H](n2cnc3c(NCc4cccc(I)c4)ncnc32)[C@H](O)[C@@H]1O [IB-MECA]
[1]; 50 μM (highest concentration)
  cell viability in LNCaP: 54%
[1]
  IC50: 54.2 µM
[2]; 0.02 mg/kg orally for 21 days
  inhibition rate of tumor growth: 20.7%
[2]; 0.2 mg/kg orally for 21 days
  inhibition rate of tumor growth: 48.7%
[2]; 2 mg/kg orally for 21 days
  inhibition rate of tumor growth: 58.6%
[2]
  side effects (such as a change in bodyweight) during the test period: survived healthfully without particular side effects
[3]; 50 μM (highest concentration)
  cell viability in PC-3: 63%
[3]
  IC50: 97.1 µM

## CNC(=O)[C@H]1S[C@@H](n2cnc3c(NCc4cccc(I)c4)nc(Cl)nc32)[C@H](O)[C@@H]1O [thio-Cl-IB-MECA, 2-chloro-N^6-(3-iodobenzyl)-4′-thioadenosine-5′-N-methyluronamide]
[1]
  IC50: 18.6 µM
[4]
  gene expression of cyclin D1 and c-Myc: inhibited the expression
  gene expression of p21 and p53: increased the expression
[2]; 0.02 mg/kg orally for 21 days
  inhibition rate of tumor growth: 16.1%
[2]; 0.2 mg/kg orally for 21 days
  inhibition rate of tumor growth: 54.4%
[2]; 2 mg/kg orally for 21 days
  inhibition rate of tumor growth: 62.1%
[2]
  side effects (such as a change in bodyweight) during the test period: survived healthfully without particular side effects
[5]
  number of the cells, PC-3: decreased in a concentration-dependent manner
[6]; ELISA, 5, 10, 20 μM, LPS 1 μg/ml, 6 hours
  amount of TNF-α secreted: concentration-dependently inhibited
[6]; RT-PCR
  expression of TNF-α mRNA: also inhibited
[3]
  IC50: 20.4 µM
